Measured values published in patent publication US20260216055A1, “PLANT-MINERAL COMPOSITION FOR PH-DEPENDENT REGULATION OF TYPE 3 AQUAPORINS BASED ON ALOE BARBADENSIS” (SKYLAB AG, priority 2022, published 2026).

How the values were obtained:
HaCaT cells = test: Cytotoxicity estimation of the components on skin keratinocytes (MTT); assay type: cell-based; settings: 24 hours
Source text: The study method is based on the definition of the amount of Type 3 aquaporins in epidermal keratinocytes after adding the components of the composition into HaCaT cell culture medium. At the first stage, cytotoxicity of the components is estimated depending on the concentration of components in the composition, be determining the number of survived cells according to MTT concentration with a color dilution method. Cells of HaCaT line were used in the amount of 10 000 cells per well in a 96-well plate. The testing facilities were as follows: humidified atmosphere with 5% CO2 at 37° C. Incubation time equaled 24 hours. For the negative control, purified water without any components of the composition was used. The number of survived cells was registered with MTT at 570 nm. The number of biological replicates was 3.

Type 3 aquaporins (AQP3) = test: Amount of Type 3 aquaporins in skin keratinocytes (HaCaT, sandwich ELISA); assay type: cell-based; settings: Table 7 experiment, 24 hours, Aloe extract 0.01%, trimethylglycine 1%, combination 0.01% + 1% equivalent to active ingredients, Hydagen Aquaporin 1% for the raw material
Source text: At the second stage, the definition of the amount of Type 3 aquaporins in keratinocytes after cultivation under the standard conditions, using the maximum non-toxic concentration of the component from the previous text. To determine the amount of AQP3, a commercially available test with the use of sandwich-type enzyme-linked immunoassay was used. Cells of HaCaT line with the density of 10^5 cells per well were introduced to the 96-well plate. On the next day, the cell medium was removed and replaced with DMEM+5% FBS 50 μL fresh cell medium to maintain cell growth. Next, 50 μL of samples of the composition under the invention was added, and cultivation was performed for 24 hours. In all the tests, 0.20% sodium chloride was added to the cell medium to regulate osmotic balance and to create physiological conditions to cultivate skin cells. The cultivating environment conditions were as follows: humidified atmosphere with 5% CO2 at 37° C. After incubation, cell supernatant was collected, and the amount of Type 3 aquaporins in skin keratinocytes was determined with ELISA method. […] Only after binding the 3 components of the reagent with AQP3 a stable color could be achieved, which was fixed with sulphuric acid and spectropotometrically detected at 450±10 nm wave length. […]

[1] = aloin in the extract composition; cited from earlier work
skin = settings: 2% in body cleansers, 12 hours after the contact with the product; cited from earlier work

SMILES: C[N+](C)(C)CC(=O)[O-] [Trimethylglycine, trimethylglycine]
- Vitality of cells, % when adding the components of the composition into the cultural medium (HaCaT cells; 0.03% (weight %) in medium): 98.8 ± 3.47%
- Vitality of cells, % when adding the components of the composition into the cultural medium (HaCaT cells; 0.10% (weight %) in medium): 99.9 ± 1.47%
- Vitality of cells, % when adding the components of the composition into the cultural medium (HaCaT cells; 0.25% (weight %) in medium): 95.4 ± 2.94%
- Vitality of cells, % when adding the components of the composition into the cultural medium (HaCaT cells; 1.00% (weight %) in medium): 93.5 ± 1.66%
- Vitality of cells, % when adding the components of the composition into the cultural medium (HaCaT cells; 10.00% (weight %) in medium): 90.3 ± 6.82%
- Increase of AQP3 amount in relation to the negative control, % (Type 3 aquaporins (AQP3)): +17.92%
- Amount of AQP3 (Type 3 aquaporins (AQP3); negative control 5.58 ± 0.24): 6.58 ± 1.08 ng/mL

SMILES: O=C1c2c(O)cccc2C([C@@H]2O[C@H](CO)[C@@H](O)[C@H](O)[C@H]2O)c2cc(CO)cc(O)c21 (stereo partly drawn) [Aloin]
- UV radiation neutralized when applied on skin surface [1]: up to 30%

SMILES: CCCCCCCCCCCCOS(=O)(=O)[O-].[Na+] [sodium lauryl sulfate]
- Transepidermal water loss (skin): 68.9 g/m^2/h
